Reference: patent publication US20240317777A1, “NOVEL MACROCYCLIC AMINOPYRAZOLE COMPOUNDS AS CDK2 INHIBITORS” (Accutar Biotechnology Inc., priority 2023, published 2024)
Like-named read-outs stand apart in the source and are kept apart here.

Legend:
CDK1-CYCLIN B = CDK1-CYCLIN B (Homo sapiens, UniProt P06493); assay: CDK protein kinase inhibition by ADP-Glo assay, CDK1-CYCLIN B; type: biochemical; details: for IC50: ADP-Glo, 1000 μM ATP, read-out: CDK1-CYCLINB, IC50; for CDK2 Fold selectivity, CDK1: CDK2 versus CDK1
CDK1-CYCLIN B, sequence (P06493 whole entry): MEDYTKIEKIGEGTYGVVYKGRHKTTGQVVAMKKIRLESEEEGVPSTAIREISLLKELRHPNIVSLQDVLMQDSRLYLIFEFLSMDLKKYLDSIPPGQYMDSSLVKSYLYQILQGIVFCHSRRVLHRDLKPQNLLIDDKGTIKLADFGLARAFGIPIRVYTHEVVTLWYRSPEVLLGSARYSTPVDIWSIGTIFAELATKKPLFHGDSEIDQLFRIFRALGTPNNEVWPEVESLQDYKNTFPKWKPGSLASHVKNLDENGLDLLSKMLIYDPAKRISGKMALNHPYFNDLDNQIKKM
CDK1-CYCLIN B, sequence (P14635 whole entry partner): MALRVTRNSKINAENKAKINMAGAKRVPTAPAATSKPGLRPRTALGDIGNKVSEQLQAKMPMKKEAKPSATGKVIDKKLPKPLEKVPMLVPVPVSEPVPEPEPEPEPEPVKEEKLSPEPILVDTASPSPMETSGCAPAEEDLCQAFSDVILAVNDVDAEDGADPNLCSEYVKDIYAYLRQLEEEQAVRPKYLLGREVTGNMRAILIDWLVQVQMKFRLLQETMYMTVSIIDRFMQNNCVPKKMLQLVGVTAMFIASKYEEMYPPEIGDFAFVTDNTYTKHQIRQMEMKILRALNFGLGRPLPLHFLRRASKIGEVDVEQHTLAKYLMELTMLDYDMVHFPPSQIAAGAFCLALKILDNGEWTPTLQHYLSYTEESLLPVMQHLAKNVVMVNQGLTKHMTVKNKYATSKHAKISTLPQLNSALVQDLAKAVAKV
How it was run: (§1)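 Enzyme reactions contain 1000 μM ATP and 5 mM MgCl2 in HEPES pH 7.5 with BSA, Triton X-100, DTT, orthovanadate and beta-glycerophosphate. They proceed at 22° C before ADP-Glo luminescent detection of ADP produced.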

CCNE1-normal SKOV3 cells = assay: Cell growth inhibition of CCNE1-normal SKOV3 cells (CellTiter-Glo); type: cell-based; details: Homo sapiens, SK-OV-3, 144 h, 6 days
How it was run: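 Growth was measured by CellTiter-Glo luminescence after 6 days' compound exposure at 37 °C. Cells were plated one day before dosing at 1000 per well in medium with 10% FBS, and compounds were diluted from DMSO stocks.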

CDK6-CYCLIN D3 = CDK6-CYCLIN D3 (Homo sapiens, UniProt Q00534); assay: CDK protein kinase inhibition by ADP-Glo assay, CDK6-CYCLIN D3; type: biochemical; details: for IC50: ADP-Glo, 1000 μM ATP, read-out: CDK6-CYCLIND3, IC50; for CDK2 Fold selectivity, CDK6: CDK2 versus CDK6
CDK6-CYCLIN D3, sequence (Q00534 whole entry): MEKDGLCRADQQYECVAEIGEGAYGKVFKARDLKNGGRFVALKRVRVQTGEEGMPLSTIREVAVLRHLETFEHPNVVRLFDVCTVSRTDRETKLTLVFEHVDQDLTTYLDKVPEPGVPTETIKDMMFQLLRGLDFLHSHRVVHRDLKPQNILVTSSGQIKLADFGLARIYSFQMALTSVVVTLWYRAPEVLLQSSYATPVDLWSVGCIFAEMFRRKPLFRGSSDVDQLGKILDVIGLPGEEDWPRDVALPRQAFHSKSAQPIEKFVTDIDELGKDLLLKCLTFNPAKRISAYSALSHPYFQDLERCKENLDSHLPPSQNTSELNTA
CDK6-CYCLIN D3, sequence (P30281 whole entry partner): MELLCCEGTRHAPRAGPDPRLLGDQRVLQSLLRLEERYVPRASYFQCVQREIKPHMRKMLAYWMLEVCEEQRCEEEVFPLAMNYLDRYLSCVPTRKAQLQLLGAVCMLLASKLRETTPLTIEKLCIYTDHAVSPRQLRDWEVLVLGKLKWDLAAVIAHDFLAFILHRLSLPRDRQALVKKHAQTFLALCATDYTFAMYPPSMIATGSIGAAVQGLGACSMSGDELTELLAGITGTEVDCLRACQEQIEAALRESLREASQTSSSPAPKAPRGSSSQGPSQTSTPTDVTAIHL
How it was run: as §1

CDK4-CYCLIN D1 = CDK4-CYCLIN D1 (Homo sapiens, UniProt P11802); assay: CDK protein kinase inhibition by ADP-Glo assay, CDK4-CYCLIN D1; type: biochemical; details: for IC50: ADP-Glo, 1000 μM ATP, read-out: CDK4-CYCLIND1, IC50; for CDK2 Fold selectivity, CDK4: CDK2 versus CDK4
CDK4-CYCLIN D1, sequence (P11802 whole entry): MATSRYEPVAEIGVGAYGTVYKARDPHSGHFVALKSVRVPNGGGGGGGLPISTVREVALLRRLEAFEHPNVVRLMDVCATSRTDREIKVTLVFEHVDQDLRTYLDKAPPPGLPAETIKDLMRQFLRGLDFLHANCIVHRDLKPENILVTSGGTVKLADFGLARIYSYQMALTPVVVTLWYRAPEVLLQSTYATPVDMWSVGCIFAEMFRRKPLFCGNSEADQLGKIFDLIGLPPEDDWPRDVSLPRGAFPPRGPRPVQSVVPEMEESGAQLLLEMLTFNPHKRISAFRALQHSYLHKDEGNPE
CDK4-CYCLIN D1, sequence (P24385 whole entry partner): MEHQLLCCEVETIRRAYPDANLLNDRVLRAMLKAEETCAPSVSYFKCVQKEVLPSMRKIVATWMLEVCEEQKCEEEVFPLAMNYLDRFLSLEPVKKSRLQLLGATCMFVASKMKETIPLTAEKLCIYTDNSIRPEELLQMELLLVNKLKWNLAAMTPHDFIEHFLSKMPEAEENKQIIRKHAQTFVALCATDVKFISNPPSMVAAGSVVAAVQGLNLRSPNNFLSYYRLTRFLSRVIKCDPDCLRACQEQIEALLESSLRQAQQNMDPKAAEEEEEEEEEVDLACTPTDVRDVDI
How it was run: as §1

[1] = system: CCNE1-amplified OVCAR3 cells; assay: Cell growth inhibition of CCNE1-amplified OVCAR3 cells (CellTiter-Glo); type: cell-based; details: Homo sapiens, OVCAR-3, 144 h, 6 days
How it was run: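 Growth read-out was CellTiter-Glo luminescence, taken after 10 min at room temperature at the end of a 6-day compound exposure at 37 °C. Compounds were diluted from DMSO stocks across various concentrations.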

[2] = system: Phospho-Rb (Ser807/811) in OVCAR3 cells; assay: Phospho-Rb expression inhibition in OVCAR3 cells quantified by In Cell Western; type: cell-based; details: Homo sapiens, OVCAR-3, 24 hours, read-out: OVCAR-3 pRb IC50
How it was run: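 In-cell western: after 24 h compound exposure at 37° C, fixed OVCAR3 cells co-stained for pRb Ser807/811 (800 nm channel) and total Rb (680 nm channel), imaged by LI-COR Odyssey.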

CDK9-CYCLIN T1 = CDK9-CYCLIN T1 (Homo sapiens, UniProt P50750); assay: CDK protein kinase inhibition by ADP-Glo assay, CDK9-CYCLIN T1; type: biochemical; details: for IC50: ADP-Glo, 1000 μM ATP, read-out: CDK9-CYCLINT1, IC50; for CDK2 Fold selectivity, CDK9: CDK2 versus CDK9
CDK9-CYCLIN T1, sequence (P50750 whole entry): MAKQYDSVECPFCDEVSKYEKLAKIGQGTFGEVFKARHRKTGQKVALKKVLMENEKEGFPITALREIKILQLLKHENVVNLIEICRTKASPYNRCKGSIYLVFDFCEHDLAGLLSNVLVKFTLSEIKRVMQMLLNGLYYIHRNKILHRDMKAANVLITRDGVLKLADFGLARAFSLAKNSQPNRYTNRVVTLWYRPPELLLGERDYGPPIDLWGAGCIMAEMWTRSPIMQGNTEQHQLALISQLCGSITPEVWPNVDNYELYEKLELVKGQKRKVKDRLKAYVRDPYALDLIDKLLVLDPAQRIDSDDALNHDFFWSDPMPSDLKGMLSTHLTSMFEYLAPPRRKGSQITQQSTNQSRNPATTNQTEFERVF
CDK9-CYCLIN T1, sequence (O60563 whole entry partner): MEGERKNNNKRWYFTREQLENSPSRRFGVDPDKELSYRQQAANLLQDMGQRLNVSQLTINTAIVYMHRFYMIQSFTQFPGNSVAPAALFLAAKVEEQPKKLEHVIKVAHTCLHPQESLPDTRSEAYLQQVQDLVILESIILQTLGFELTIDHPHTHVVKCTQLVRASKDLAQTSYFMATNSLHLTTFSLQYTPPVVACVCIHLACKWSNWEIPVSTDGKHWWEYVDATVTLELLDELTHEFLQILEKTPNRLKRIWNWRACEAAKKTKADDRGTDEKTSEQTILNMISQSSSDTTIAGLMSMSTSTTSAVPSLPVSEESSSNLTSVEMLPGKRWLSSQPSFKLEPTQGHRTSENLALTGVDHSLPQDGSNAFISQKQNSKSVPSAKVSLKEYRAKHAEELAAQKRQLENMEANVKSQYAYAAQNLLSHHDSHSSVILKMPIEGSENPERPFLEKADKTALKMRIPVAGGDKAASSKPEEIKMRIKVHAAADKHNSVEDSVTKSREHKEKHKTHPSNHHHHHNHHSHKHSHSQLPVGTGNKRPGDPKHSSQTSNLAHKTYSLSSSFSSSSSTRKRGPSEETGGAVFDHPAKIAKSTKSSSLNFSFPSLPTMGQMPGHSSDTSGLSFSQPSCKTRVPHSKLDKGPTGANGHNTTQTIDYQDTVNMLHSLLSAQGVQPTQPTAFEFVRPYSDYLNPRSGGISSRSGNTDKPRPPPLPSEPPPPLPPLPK
How it was run: as §1

CDK2-CYCLIN E1 = CDK2-CYCLIN E1 (Homo sapiens, UniProt P24941); assay: CDK protein kinase inhibition by ADP-Glo assay, CDK2-CYCLIN E1; type: biochemical; details: ADP-Glo, 1000 μM ATP, read-out: CDK2-CYCLINE, IC50
How it was run: as §1

Row | IC50 (CDK1-CYCLIN B; Table 19) | CDK2 Fold selectivity, CDK1 (CDK1-CYCLIN B; Table 20) | IC50 (CDK6-CYCLIN D3; Table 19) | CDK2 Fold selectivity, CDK6 (CDK6-CYCLIN D3; Table 20) | IC50 (CDK4-CYCLIN D1; Table 19) | CDK2 Fold selectivity, CDK4 (CDK4-CYCLIN D1; Table 20) | IC50 [1] | IC50 [2] | IC50 (CDK9-CYCLIN T1; Table 19) | CDK2 Fold selectivity, CDK9 (CDK9-CYCLIN T1; Table 20) | IC50 (CDK2-CYCLIN E1; Table 19) | SMILES | IC50 (CCNE1-normal SKOV3 cells) | further results
1 | 100 to 500 nM | E (E, <20) | 100 to 500 nM | E (E, <20) | 50 to 100 nM | E (E, <20) | 10 to 50 nM | 10 to 50 nM | 100 to 500 nM | D (D, >20 and ≤50) | ≤ 10 nM | C[C@H]1CCCCc2cc(ccn2)Nc2cc(n[nH]2)[C@H]2CC[C@H](C2)OC(=O)N1 [Compound 114, (1^1S,1^3R,9S,Z)-9-methyl-2^1H-12-oxa-3,10-diaza-4(4,2)-pyridina-2(3,5)-pyrazola-1(1,3)-cyclopentanacyclododecaphan-11-one] | 250 to 1250 nM | 
2 | 50 to 100 nM | E (E, <20) | 10 to 50 nM | E (E, <20) | 10 to 50 nM | E (E, <20) | 10 to 50 nM | 10 to 50 nM | 100 to 500 nM | E (E, <20) | 10 to 50 nM | C[C@@H]1CCCCc2cc(ccn2)Nc2cc(n[nH]2)[C@H]2CC[C@H](C2)OC(=O)N1 [Compound 115, (1^1S,1^3R,9R,Z)-9-methyl-2^1H-12-oxa-3,10-diaza-4(4,2)-pyridina-2(3,5)-pyrazola-1(1,3)-cyclopentanacyclododecaphan-11-one] | 250 to 1250 nM | 
3 |  |  |  |  |  |  | 10 to 50 nM | 10 to 50 nM |  |  |  | O=C1NC2(CCCCc3cc(ccn3)Nc3cc(n[nH]3)[C@H]3CC[C@H](C3)O1)CC2 [Compound 116, (1′S,3′R,Z)-spiro[cyclopropane-1,9′-12-oxa-3,10-diaza-4(4,2)-pyridina-2(3,5)-pyrazola-1(1,3)-cyclopentanacyclododecaphan]-11′-one] | 250 to 1250 nM | IC50 (CDK1-CYCLIN B; Table 17): 50 to 100 nM; CDK2 Fold selectivity, CDK1 (CDK1-CYCLIN B; Table 18): D (D, >20 and ≤50); IC50 (CDK6-CYCLIN D3; Table 17): 10 to 50 nM; CDK2 Fold selectivity, CDK6 (CDK6-CYCLIN D3; Table 18): E (E, <20); IC50 (CDK4-CYCLIN D1; Table 17): 10 to 50 nM; CDK2 Fold selectivity, CDK4 (CDK4-CYCLIN D1; Table 18): E (E, <20); IC50 (CDK9-CYCLIN T1; Table 17): 50 to 100 nM; CDK2 Fold selectivity, CDK9 (CDK9-CYCLIN T1; Table 18): D (D, >20 and ≤50); IC50 (CDK2-CYCLIN E1; Table 17): ≤ 10 nM
4 |  |  |  |  |  |  | ≤ 2 nM | ≤ 2 nM |  |  |  | O=C1NC23CC(CCOc4cncc(c4)Nc4cc(n[nH]4)[C@H]4CC[C@H](C4)O1)(C2)C3 [Compound 117, (1^1S,1^3R,Z)-2^1H-5,11-dioxa-3,9-diaza-4(3,5)-pyridina-2(3,5)-pyrazola-8(1,3)-bicyclo[1.1.1]pentana-1(1,3)-cyclopentanacycloundecaphan-10-one] | 50 to 250 nM | IC50 (CDK1-CYCLIN B; Table 11): ≤ 10 nM; CDK2 Fold selectivity, CDK1 (CDK1-CYCLIN B; Table 12): E (E, <20); IC50 (CDK6-CYCLIN D3; Table 11): 10 to 50 nM; CDK2 Fold selectivity, CDK6 (CDK6-CYCLIN D3; Table 12): E (E, <20); IC50 (CDK4-CYCLIN D1; Table 11): 10 to 50 nM; CDK2 Fold selectivity, CDK4 (CDK4-CYCLIN D1; Table 12): E (E, <20); IC50 (CDK9-CYCLIN T1; Table 11): 10 to 50 nM; CDK2 Fold selectivity, CDK9 (CDK9-CYCLIN T1; Table 12): D (D, >20 and ≤50); IC50 (CDK2-CYCLIN E1; Table 11): ≤ 10 nM
